The target of assay [1] is T1, partially purified recombinant human PDE6C (Homo sapiens, UniProt P51160).
T1 construct: partially purified recombinant full-length human PDE6C; purchased SB Drug Discovery; host or cells: insect cells
The experiment in a line: PDE6C inhibition assay (GMP production). Format: biochemical. The protocol:
PDE6C inhibition was measured using the same method as described for PDE5 with modifications. […] The final reaction volume was 50 μL. […] Reactions were stopped as described above for PDE5 enzyme assays, and GMP was quantified as described above. […] The amount of GMP produced in these samples was subtracted from all samples before normalizing against untreated controls.

The subject of the next assay is BJ-hTERT cells. Kind of assay: cellular GMP levels after inhibitor treatment. The format is cell-based, human. The following applies: 20 μM inhibitor, 1 hour; mean ± SEM; p<0.001. The method, then: For assaying PDE5 inhibitor effects on GMP levels in a cell line, BJ-hTERT cells were plated in 6-well plates (Corning) in the media described above. When cells were 80% confluent, fresh, pre-warmed media with DMSO (untreated controls) or 20 μM sildenafil, 3, or 7 was added and incubated for 1 hour. Maximum DMSO concentration in all samples was 0.2% of the total well volume. Cells were washed once with cold 0.9% NaCl. 800 μL of 80:20 methanol:water spiked with 500 nM isotopically labeled amino acids as internal standards was added while cells were on dry ice. Cells were detached with a cell scraper. Extracts were vortexed for 10 minutes and centrifuged at maximum speed at 4 °C to remove debris. Extracts were dried down in a vacuum dryer and stored at -80 °C. An additional sample was reserved for visual inspection of cell health by confocal light microscopy and for cell counting with a hemocytometer. Three independent assays were conducted in total, with 1–2 replicates per assay. To analyze GMP levels, samples were reconstituted in 50 μL LC-MS grade water and analyzed by HPLC-UV-MS as described in the general procedures and for enzyme inhibition and kinetics assays. The amino acid standards were analyzed in full scan positive mode with mass windows m/z 50–800. GMP peak areas were normalized to the peak area of the internal standard ^13C4, ^15N-threonine or ^13C6, ^15N3-histidine to account for variations in extraction or resuspension volume. The peak areas were then normalized to the average GMP peak area in undrugged controls and multiplied by 100 to obtain the percent GMP.

The structures appear in SMILES notation.

T1 sequence (P51160 whole entry): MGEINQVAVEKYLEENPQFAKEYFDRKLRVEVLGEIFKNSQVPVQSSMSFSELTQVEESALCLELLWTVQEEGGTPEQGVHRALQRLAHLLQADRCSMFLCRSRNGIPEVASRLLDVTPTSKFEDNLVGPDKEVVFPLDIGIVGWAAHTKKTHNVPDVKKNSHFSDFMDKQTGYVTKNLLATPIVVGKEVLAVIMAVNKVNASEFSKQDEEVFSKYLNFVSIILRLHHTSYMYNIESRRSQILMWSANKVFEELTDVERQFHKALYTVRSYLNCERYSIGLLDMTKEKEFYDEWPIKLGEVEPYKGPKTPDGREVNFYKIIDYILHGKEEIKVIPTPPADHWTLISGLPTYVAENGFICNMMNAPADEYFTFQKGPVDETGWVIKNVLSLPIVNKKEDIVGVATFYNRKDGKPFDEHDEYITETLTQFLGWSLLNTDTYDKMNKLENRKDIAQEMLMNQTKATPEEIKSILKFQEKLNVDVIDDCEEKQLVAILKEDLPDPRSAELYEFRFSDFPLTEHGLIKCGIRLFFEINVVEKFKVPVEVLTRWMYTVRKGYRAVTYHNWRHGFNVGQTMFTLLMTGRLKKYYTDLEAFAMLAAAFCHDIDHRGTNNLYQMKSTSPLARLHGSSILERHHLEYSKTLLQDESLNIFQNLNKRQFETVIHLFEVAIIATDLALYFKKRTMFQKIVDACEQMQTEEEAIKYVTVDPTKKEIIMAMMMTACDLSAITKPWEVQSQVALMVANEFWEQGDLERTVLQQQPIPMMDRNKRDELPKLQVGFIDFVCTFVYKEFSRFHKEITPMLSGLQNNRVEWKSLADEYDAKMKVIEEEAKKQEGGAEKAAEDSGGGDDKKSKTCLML

Consider `COc1ccc(-c2oc3c(CC=C(C)C)c(O)cc(O)c3c(=O)c2OCCCO)cc1` [Compound 7, 3-O-(3-Hydroxypropyl)-Icaritin], for which the “specificity for PDE5 over PDE6C” value in assay [1] is “does not show this specificity”. In addition, the “PDE6C inhibition, statistical significance” value in assay [1] (at 50x the PDE5 IC50, vs theoretical uninhibited mean of 100%) is “significantly inhibits PDE6C activity”. For the same compound, in the assay with BJ-hTERT cells, the “cellular GMP concentration, % of the GMP concentration in untreated control cells” value was found to be 13 ± 2%.

The values are drawn from publication PMC6754136 (PLoS ONE, 2019).
